Test results from patent US9913812B2, “Methods for the treatment of skin neoplasms” (TEIKOKU PHARMA USA, INC., priority 2011, dated 2018).
Entries after “also recorded” stand apart in the source; their conditions may differ. Like-named read-outs stand apart in the source and are kept apart here.

How the values were obtained:
[1] = Body weights of tumor-bearing mice during treatment; format: in vivo; conditions: for Difference in body weight (BW), Vehicle vs. Rasagiline PO / Difference in percent change in body weight (% BW), Vehicle vs. Rasagiline PO: 15 mg/kg PO daily
Experimental: Body weights were measured prior to dosing and every three days concurrent with tumor measurements for both patch removal/application and oral dosing. Body weights were transformed into percent change in body weight using the formula: […] […] Cisplatin was administered once-weekly via intraperitoneal injection.

[2] = Survival / mortality of tumor-bearing mice during treatment; format: in vivo
Experimental: The percentage of animal mortality and time of death was recorded for every group in the study. Animals were defined as moribund and euthanized if one or more of the following criteria were met: prolonged or excessive pain or distress as defined by clinical observations such as: prostration, hunched posture, paralysis/paresis, distended abdomen, ulcerations, abscesses, seizures and/or hemorrhages; loss of more than 20% of their body weight; if the tumor volumes exceeded 2,000 mm^3 or the tumors ulcerated, bled or produced exudates.
Survival of the animals was recorded for the entire experiment. If an animal died or was euthanized due to morbidity during the experiment, its day of death was designated as “1”. If an animal survived the entire time course of the experiment, the last day of observation was designated as a “0”. Survival data was analyzed using a Kaplan-Meier Survival analysis and survival curves were compared using a Log-rank test. P values less than 0.05 were considered significant.

[3] = oral administration (0.45 mg/kg), cited from earlier work
[4] = tested on: SKMEL28 human melanoma cell line; assay: SKMEL28 melanoma xenograft tumor volume / growth in athymic mice; conditions: for tumor volume / tumor growth on the last day of the experiment (in words) / tumor growth rates (in words): compared to the no treatment group
Description: The SKMEL28 human melanoma cell line was obtained from ATCC and grown according to the vendor's instructions until a log growth phase was obtained. The cells were harvested from the culture vessel, washed once and re-suspended in serum free medium and matrigel mixed at a 1:1 ratio.
Female athymic (nu/nu) mice were used for in vivo animal studies. The mice were 7-8 weeks old at the time of tumor implantation. Six groups of mice were included in the study, with 10 animals in each group.
Mice were inoculated subcutaneously in the scapular area in a volume of 0.2 mL containing ˜10×10^6 SKMEL28 cells.
Tumor dimensions were measured twice a week with digital calipers and tumor volumes were calculated from the dimensions with the formula: Tumor Volume (m)=(a^2×b/2); where “a” was the smallest dimension and “b” was the largest dimension. […] Test article treatment was initiated on the same day as assignment to treatment groups. Tumor dimensions were measured and tumor volumes calculated every three days (at the same time as patch removal and application) for 21 days. Tumor volumes were also transformed into percent change in tumor volume using the formula: Percent Change TV=(TVi−TVo)/TVo×100%; where TV was tumor volume, TVi was the tumor volume at the measurement time and TVo was the initial tumor volume. Differences between treatment groups for both the raw tumor volumes and percent changes in tumor volume versus time data sets were evaluated with Two-way ANOVAs. Pair-wise differences between the no treatment and test article treatment groups on each measurement day were evaluated with post hoc Bonferroni's T-tests. In order to evaluate the growth rates of the tumors between treatments, straight lines were fitted through the different data sets (percent change in tumor volumes versus time) by least squares regression. Slopes of the lines were compared initially between all groups and then in a pair-wise fashion between the “no treatment” and “test article” treated groups using an F-test. In all cases, P values less than 0.05 were considered significant.
Test article administrations were initiated on the same day as treatment group assignments and according to the Experimental Grouping Table. Rasagiline administration consisted of either oral gavage (15 mg/kg PO, daily for 21 days) or topical transdermal patch treatment. Cisplatin was administered once-weekly via intraperitoneal injection. Transdermal patches were applied to the intrascapular (i.e., directly over the tumor) and chest areas and maintained in position with a single BandAid™. Fresh patches were applied to the same locations every third day. The skin was cleaned prior to the first patch application with clorehexadene and as necessary prior to repeat applications. […] Mice were conscious and lightly restrained for patch removal and application. The patches were 0.75 or 1.2 in^2.

in vivo = conditions: athymic nude, mouse, po, 15 mg/kg
Experimental: At the end of the 21-day treatment duration, 2 animals from each group were euthanized at each of the following time points by isoflurane inhalation (0.5, 1, 2, 4, 8, and 24 hours after the last administration of the test articles including the application of fresh transdermal patches). For the 15 mg/kg PO Rasagiline group, two mice were bled twice (cheek bleed and terminal cardiac) so that ten mice could supply blood samples for six time points. Blood samples were collected from these animals via cardiac puncture into blood collection tubes containing lithium heparin. The blood samples were processed within 30 minutes of collection by centrifugation to prepare plasma samples. The plasma was separated from the cellular fraction and frozen on dry ice. Plasma samples were stored at −80° C. until they were shipped to an analytical laboratory designated by the Sponsor.
To compare rasagiline exposure by both dosing routes, blood was collected from two animals at each time point by sparse sampling techniques via cardiocentesis prior to euthanasia. Two samples were collected each from two animals in the oral dose group by collecting the first sample from the submandibular vein at 0.25 hours and cardiocentesis at eight hours. Blood was collected from animals administered oral rasagiline at 0.25, 0.5, 1, 2, 4 and 8 hours after the last oral dose. Animals administered the transdermal patches had blood collected at 0.5, 1, 2, 4, and 24 hours on the last application day. Blood collected from animals in the naïve, vehicle, and placebo patch groups determined baseline values and were used for pre-dose levels. […] Mean values for each time point within the rasagiline groups were used to calculate the mean AUC(0-t) value. The AUC(0-8) derived for the oral rasagiline group was multiplied by three to estimate the AUC(0-24) exposure. The ratio of AUC(0-24) for each of the baseline transdermal groups was divided by the estimated oral AUC(0-24) to compare exposures between the two dosing routes.

[5] = oral gavage 15 mg/kg, listed as rasagiline mesylate, 15 mg/kg
[6] = oral gavage 15 mg/kg, listed as rasagiline, 15 mg/kg

With `C#CCNC1CCc2ccccc21` (stereo not shown) [Rasagiline, N-propargyl-1-aminoindan] the “Difference in body weight (BW), Vehicle vs. Rasagiline PO” value (shortened to “Difference in body weight (BW)”) ([1]; Day 1) was 0.4100, the “Difference in percent change in body weight (% BW), Vehicle vs. Rasagiline PO” value ([1]; Day 1) was 0.0000% and the “Difference in body weight (BW)” value ([1]; Day 4) was −0.1100. For the same compound, the “Difference in percent change in body weight (% BW), Vehicle vs. Rasagiline PO” value ([1]; Day 4) was −2.229%, the “Difference in body weight (BW)” value ([1]; Day 7) was 0.2200 and the “Difference in percent change in body weight (% BW), Vehicle vs. Rasagiline PO” value ([1]; Day 7) was −0.7052%. For the same compound, the “Difference in body weight (BW)” value ([1]; Day 10) was 0.3400, the “Difference in percent change in body weight (% BW), Vehicle vs. Rasagiline PO” value ([1]; Day 10) was −0.2490% and the “Difference in body weight (BW)” value ([1]; Day 13) was 0.1700. The “Difference in percent change in body weight (% BW), Vehicle vs. Rasagiline PO” value ([1]; Day 13) was −1.053%, the “Difference in body weight (BW)” value ([1]; Day 16) was 0.2800 and the “Difference in percent change in body weight (% BW), Vehicle vs. Rasagiline PO” value ([1]; Day 16) was −0.4240%. For the same compound, the “Difference in body weight (BW)” value ([1]; Day 22) was −0.5500, the “Difference in percent change in body weight (% BW), Vehicle vs. Rasagiline PO” value ([1]; Day 22) was −4.072% and the “percent change in body weight (in words)” value ([1]; oral 15 mg/kg daily, compared with the no treatment group, 15 mg/kg) was “steadily reduced body weight from day 13 onwards”. For the same compound, the “survival (in words)” value ([2]; orally or transdermally, 21 days) was “survived to the end of the study; also recorded: survived the dosing period”, the “Maximum % of dose” value ([3]; Fat) was 8.47 % of dose and the “Time to maximal exposure” value ([3]; Fat) was 0.25. The “Maximum % of dose” value ([3]; Kidneys) was 3.89 % of dose, the “Time to maximal exposure” value ([3]; Kidneys) was 0.25 and the “Maximum % of dose” value ([3]; Large intestine) was 1.83 % of dose. For the same compound, the “Time to maximal exposure” value ([3]; Large intestine) was 1, the “Maximum % of dose” value ([3]; Liver) was 13.20 % of dose and the “Time to maximal exposure” value ([3]; Liver) was 0.25. For the same compound, the “Maximum % of dose” value ([3]; Lung) was 1.46 % of dose, the “Time to maximal exposure” value ([3]; Lung) was 0.25 and the “Maximum % of dose” value ([3]; Muscle) was 24.11 % of dose. The “Time to maximal exposure” value ([3]; Muscle) was 0.25, the “Maximum % of dose” value ([3]; Skin) was 13.20 % of dose and the “Time to maximal exposure” value ([3]; Skin) was 0.25. For the same compound, the “Maximum % of dose” value ([3]; Small intestine) was 8.76 % of dose, the “Time to maximal exposure” value ([3]; Small intestine) was 0.25 and the “Maximum % of dose” value ([3]; Stomach) was 4.73 % of dose. The “Time to maximal exposure” value ([3]; Stomach) was 0.5, the “Maximum % of dose” value ([3]; Whole Blood) was 4.54 % of dose and the “Time to maximal exposure” value ([3]; Whole Blood) was 0.25. The “SLOPE, best-fit value of linear fit to percent changes in tumor volume versus time” value ([4]; 15 mg/kg PO daily, 21 days) was 26.64, the “Difference in percent change in tumor volume (% TV), Vehicle vs. Rasagiline 15 mg/kg PO” value ([4]; Day 1, 15 mg/kg PO daily) was 0.0000% and the “Difference in tumor volume (TV), Vehicle vs. Rasagiline (15 mg/kg PO)” value (from here on “Difference in tumor volume (TV)”) ([4]; Day 1, 15 mg/kg PO daily) was −0.2606. For the same compound, the “Difference in percent change in tumor volume (% TV), Vehicle vs. Rasagiline 15 mg/kg PO” value ([4]; Day 4, 15 mg/kg PO daily) was −12.56%, the “Difference in tumor volume (TV)” value ([4]; Day 4, 15 mg/kg PO daily) was −15.03 and the “Difference in percent change in tumor volume (% TV), Vehicle vs. Rasagiline 15 mg/kg PO” value ([4]; Day 7, 15 mg/kg PO daily) was −36.19%. For the same compound, the “Difference in tumor volume (TV)” value ([4]; Day 7, 15 mg/kg PO daily) was −40.95, the “Difference in percent change in tumor volume (% TV), Vehicle vs. Rasagiline 15 mg/kg PO” value ([4]; Day 10, 15 mg/kg PO daily) was −42.92% and the “Difference in tumor volume (TV)” value ([4]; Day 10, 15 mg/kg PO daily) was −50.83. The “Difference in percent change in tumor volume (% TV), Vehicle vs. Rasagiline 15 mg/kg PO” value ([4]; Day 13, 15 mg/kg PO daily) was −71.82%, the “Difference in tumor volume (TV)” value ([4]; Day 13, 15 mg/kg PO daily) was −92.36 and the “Difference in percent change in tumor volume (% TV), Vehicle vs. Rasagiline 15 mg/kg PO” value ([4]; Day 16, 15 mg/kg PO daily) was −98.35%. The “Difference in tumor volume (TV)” value ([4]; Day 16, 15 mg/kg PO daily) was −128.8, the “Difference in percent change in tumor volume (% TV), Vehicle vs. Rasagiline 15 mg/kg PO” value ([4]; Day 22, 15 mg/kg PO daily) was −153.3% and the “Difference in tumor volume (TV)” value ([4]; Day 22, 15 mg/kg PO daily) was −154.4. For the same compound, the “tumor volume / tumor growth on the last day of the experiment (in words)” value (“tumor volume / tumor growth” below) ([4]; oral gavage 15 mg/kg, 15 mg/kg) was “significantly reduced tumor volume”, the “tumor growth rates (in words)” value [4, 5] was “significantly reduced absolute tumor volumes as well as tumor growth rates” and the “tumor volume / tumor growth” value [4, 5] was “significantly reduced absolute tumor volumes”. The “tumor growth rates (in words)” value [4, 6] was “significantly slowed; also recorded: significantly reduced tumor growth rates”, the “tumor volume / tumor growth” value [4, 6] was “significant reductions in tumor growth” and the “reduction in percent change in tumor volume” value ([4]; oral gavage 15 mg/kg, compared to the oral vehicle control) was 22%. The “tumor growth rates (in words)” value ([4]; transdermal patch) was “significantly reduced absolute tumor volumes as well as tumor growth rates”, the “tumor volume / tumor growth” value ([4]; transdermal patch) was “significantly reduced absolute tumor volumes” and the Cmax (in vivo) was 899 ng/mL. For the same compound, the Tmax (in vivo) was 15 min, the concentration at 0.25 h (in vivo) was 899 ng/mL and the concentration at 0.5 h (in vivo) was 370 ng/mL. It also gave a concentration at 1 h (in vivo) of 216 ng/mL, a concentration at 2 h (in vivo) of 82.5 ng/mL and a concentration at 4 h (in vivo) of 28.4 ng/mL. For the same compound, the concentration at 8 h (in vivo) was 19.9 ng/mL, the “time of mean maximal plasma concentration” value (in vivo) was 15 min and the AUC(0-t) (in vivo; Mean AUC(0-24)) was 774 ng·h/mL. The AUC(0-t) (in vivo; estimated exposure after 24 hours (AUC(0-8) multiplied by three)) was 2320 ng·h/mL.
In the case of `N.N.[Cl][Pt][Cl]` [Cisplatin], the “body weight loss (in words)” value ([1]; 10 mg/kg IP, versus any other treatment group) is reported as “greater body weight loss”, the “survival versus No Treatment group (Logrank test; in words)” value ([2]; 10 mg/kg IP every 7 days) is reported as “Yes” and the animals that died ([2]; 10 mg/kg IP every 7 days, group of 10, deaths on Days 13-17) is reported as 7 out of the 10. For the same compound, the “SLOPE, best-fit value of linear fit to percent changes in tumor volume versus time” value ([4]; 10 mg/kg IP every 7 days) was 13.16, the “tumor growth rates (in words)” value ([4]; 10 mg/kg IP) was “significantly slowed; also recorded: significantly reduced tumor growth rates” and the “reduction in the percent change in tumor volumes” value ([4]; 10 mg/kg IP, compared to the oral vehicle treatment, prior to death of the majority of the animals) was 49%.
